According to publication PMC3758437 (Kidney international, 2013):
Structures can show the parent of a compound that is named as a salt. Where two headings read alike, the source gives them in different places.

Columns and labels:
[1] = test system: plasma proteins; format: in vitro ADME; details: human, plasma (ultrafiltration)
[2] = normal subjects; LC/MS/MS assay; mean±sd
[3] = test system: plasma proteins; assay: Free fraction by stable isotope dilution LC/MS/MS assay; details: human, plasma (ultrafiltration)

fraction unbound [1] | Plasma Free Concentration [2] | fraction unbound [3] | SMILES
0.09 ± 0.03 |  |  | Cn1c(=O)c2c([nH]c(=O)n2C)n(C)c1=O [1,3,7-Trimethyluric acid]
0.39 ± 0.3 |  |  | Cn1c(=O)[nH]c2[nH]c(=O)n(C)c2c1=O [1,7-Dimethyluric acid]
0.49 |  |  | O=C(O)CNC(=O)c1ccco1 [2-Furoylglycine]
0.04 ± 0.01 |  |  | O=C(O)CCCCC(=O)O [Adipic acid]
 | 74 ± 13 µM |  | CN1CC(=O)NC1=N [Creatinine]
0.27 ± 0.05 | 1.5 ± 0.9 µM | 0.41 ± 0.02 | O=C(O)CNC(=O)c1ccccc1 [Hippurate]
0.02 ± 0.01 | 0.13 ± 0.05 µM | 0.027 ± 0.004 | O=S(=O)(O)Oc1c[nH]c2ccccc12 [Indoxyl sulfate]
0.11 ± 0.04 |  |  | CC(CC(=O)O)C(=O)O (stereo not drawn) [Methylsuccinic acid]
0.07 ± 0.02 |  |  | O=C(O)CCCCCCC(=O)O [Suberic acid]
 | 2.4 ± 0.6×10^3 μM |  | NC(N)=O [Urea]

SMILES | fraction unbound [1] | Plasma Free Concentration [2] | fraction unbound [3]
Cc1ccc(OS(=O)(=O)O)cc1 [p-Cresol sulfate] |  | 0.46 ± 0.26 µM | 
